# Results reported in the supplement of paper PMC10307832.
# Experiments:
# Assay in all cases: relative viability (nuclei count vs DMSO), 5 days (fraction); higher = more cells survive
# [1] = compound: CNC(=O)c1ccccc1Sc1ccc2c(/C=C/c3ccccn3)n[nH]c2c1 [Axitinib] + Nc1nc2[nH]cc(CCc3ccc(C(=O)N[C@@H](CCC(=O)O)C(=O)O)cc3)c2c(=O)[nH]1 [Pemetrexed] (partner 0.2 µM)
# Outline: (§1)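 Relative viability equals treated-well nuclei counts divided by vehicle-well nuclei counts. Counts came from 4× images of lung cancer cell lines grown in 1536-well plates for 5 days after pin-tool dosing on the day after seeding. Dosing used one drug alone or a fixed anchor-drug dose plus five library-drug doses (not always all listed) in √10 steps, and values are medians of duplicate plates.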
# [2] = compound: CC1=CC=C(C=C1)C(=O)CN2C3=C(CCCC3)SC2=N [Pifithrin_alpha] + CC(C)C[C@H](NC(=O)[C@H](Cc1ccccc1)NC(=O)c1cnccn1)B(O)O [Bortezomib] (partner 0.002 µM)
# Outline: as §1
# [3] = compound: CC1=CC=C(C=C1)C(=O)CN2C3=C(CCCC3)SC2=N [Pifithrin_alpha] + C[C@]1(O)C[C@@H](c2nc(-c3ccc4ccc(-c5ccccc5)nc4c3)c3c(N)nccn32)C1 [Linsitinib] (partner 1 µM)
# Outline: as §1
# [4] = compound: Nc1nc(Nc2ccc3c(c2)CC[C@@H](N2CCCC2)CC3)nn1-c1cc2c(nn1)-c1ccccc1CCC2 [Bemcentinib] + COc1cccc2cc(-c3nc([C@H]4CC[C@H](C(=O)O)CC4)n4ncnc(N)c34)[nH]c12 [OSI-027] (partner 0.5 µM)
# Outline: as §1
Cell Line,relative viability ([1]; first compound 0.005 µM),relative viability ([1]; first compound 0.01581 µM),relative viability ([1]; first compound 0.05 µM),relative viability ([1]; first compound 0.1581 µM),relative viability ([1]; first compound 0.5 µM),relative viability ([2]; first compound 1 µM),relative viability ([2]; first compound 3.162 µM),relative viability ([2]; first compound 10 µM),relative viability ([2]; first compound 31.62 µM),relative viability ([2]; first compound 100 µM),relative viability ([3]; first compound 1 µM),relative viability ([3]; first compound 3.162 µM),relative viability ([3]; first compound 10 µM),relative viability ([3]; first compound 31.62 µM),relative viability ([3]; first compound 100 µM),relative viability ([4]; first compound 0.04 µM),relative viability ([4]; first compound 0.1265 µM),relative viability ([4]; first compound 0.4 µM),relative viability ([4]; first compound 1.265 µM),relative viability ([4]; first compound 4 µM)
201T,0.379,0.3,0.294,0.302,0.332,1.05,1.07,1.16,0.794,0.913,0.956,0.792,0.744,0.689,0.731,0.599,1.02,0.778,0.709,0.801
A549,,,,,,,,,,,,0.582,0.595,0.458,0.71,,,,,
A-427,1.11,1.1,1.01,0.954,1.14,0.953,0.957,0.916,0.722,0.928,1.07,1.06,1.1,0.924,1.11,0.455,0.511,0.492,0.427,0.472
ABC-1,,,,,,0.322,0.351,0.328,0.26,0.298,0.9,0.651,0.621,0.593,0.506,0.435,0.402,0.469,0.683,0.507
BEN,0.73,0.858,0.801,0.859,0.751,0.47,0.884,0.914,0.728,1.04,0.991,1.11,1.01,0.929,1.29,0.292,0.288,0.296,0.345,0.322
CAL-12T,1.43,1.35,1.28,1.22,1.24,0.962,1.09,1.02,0.666,0.809,0.877,0.702,0.819,0.718,0.702,0.6,0.912,0.77,0.769,0.755
COR-L23,0.197,0.201,0.194,0.192,0.21,1.01,0.928,0.973,,0.908,0.974,1.02,0.882,,0.871,0.665,0.969,0.905,0.788,0.888
COR-L 105,1.14,1.09,1.05,1.25,1.26,0.725,0.615,0.856,0.629,0.632,0.786,0.713,0.859,0.573,0.662,0.521,0.642,0.571,0.713,0.726
Calu-6,,,,,,1.07,1.04,0.899,0.569,0.881,0.932,1.05,0.997,,0.848,,,,,
ChaGo-K-1,0.27,0.262,0.252,0.267,0.274,0.962,1.21,0.944,0.711,0.986,,,,,,0.515,0.794,0.626,0.614,0.531
EBC-1,,,,,,0.512,0.411,0.437,0.354,0.287,0.912,0.878,0.861,0.561,0.576,,,,,
EKVX,0.428,0.376,0.457,0.417,0.398,1.07,0.94,0.768,0.607,0.648,1.05,0.644,0.705,0.615,0.739,0.57,0.669,0.753,0.793,0.824
EMC-BAC-2,0.476,0.464,0.456,0.461,0.518,1.07,1.09,0.99,0.8,1.15,0.799,0.859,0.765,0.745,0.927,0.372,0.369,0.427,0.37,0.388
EPLC-272H,0.333,0.341,0.302,0.381,0.336,,0.944,0.895,0.627,1.11,,1.07,1.21,0.995,1.11,0.342,0.266,0.318,0.244,0.361
H3255,0.531,0.527,0.568,0.568,0.578,0.584,0.76,0.711,0.416,0.421,1.02,0.969,0.919,0.672,0.962,0.597,0.66,0.558,0.66,0.666
HARA,0.231,0.265,0.309,0.26,0.258,1.25,1.13,1.2,0.878,1.26,0.988,1.02,0.9,0.542,0.857,0.479,0.758,0.589,0.453,0.469
HCC-15,0.211,0.228,0.23,0.22,0.211,1.1,1.11,0.919,0.772,1.1,0.937,0.977,0.868,0.593,0.894,0.716,0.794,0.74,0.726,0.815
HCC-44,0.625,0.631,0.626,0.624,0.676,0.916,0.851,0.793,0.68,0.652,0.571,0.607,0.64,0.441,0.578,0.452,0.661,0.446,0.483,0.511
